The text below walks through data of patent publication US11771649B1, “Pharmaceutical lotion or salve utilizing mixed metal hydroxide antimicrobial charged particles” (Magalum LLC, priority 2021, dated 2023).

The subject of this experiment is methicillin resistant Staphylococcus aureus. The experiment is described as follows: Example XXI: wound infected with methicillin resistant Staphylococcus aureus. The experiment is classed as in vivo, horse. An excerpt: A 4 year old quarter horse mare had received a 4 inch cut on the chest from an encounter with a corral fence and had developed an infection. […] At that time, a specimen was taken from the wound and sent to a diagnostic lab for identification. Treatment of the wound was then started with silver sulfa diazole. When the results were returned from the diagnostic lab, the pathogen was identified as methicillin resistant Staphylococcus aureus. At that time, salve as described in Example 4 was applied to the wound, and then reapplied twice daily.

Consider penicillin, for which the state of wound result (10,000 units per pound body weight injection, after 72 hours) was “no improvement was again noted”.
With `NC(=O)N/N=C/c1ccc([N+](=O)[O-])o1` [nitrofurazone ointment, nitrofurazone], where the note is “prior treatment, after two days”, the state of wound result is recorded as “no positive result”.
